# Data as given in PubChem BioAssay (NCI).
# “And” between values parts separate entries of the source, which are not always exact repeats. Identical values can stand only once.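 Step 1: Grow cells in 96-well plates. Step 2: Expose to compound for 48 hours at 5 concentrations. Step 3: Interpolate endpoints linearly; if unreached, use highest concentration. GI50 marks 50% less growth. At the TGI there is no net growth.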
# Tests used:
# Test in all cases: NCI-60 cell line screen, 48 h
# 786-0 renal = tested on: 786-0 renal
# A498 renal = tested on: A498 renal
# A549 NSCLC = tested on: A549 NSCLC
# ACHN renal = tested on: ACHN renal
# BT-549 breast = tested on: BT-549 breast
# CAKI-1 renal = tested on: CAKI-1 renal
# CCRF-CEM leukemia = tested on: CCRF-CEM leukemia
# COLO 205 colon = tested on: COLO 205 colon
# DU-145 prostate = tested on: DU-145 prostate
# EKVX NSCLC = tested on: EKVX NSCLC
# HCC-2998 colon = tested on: HCC-2998 colon
# HCT-116 colon = tested on: HCT-116 colon
# HCT-15 colon = tested on: HCT-15 colon
# HL-60(TB) leukemia = tested on: HL-60(TB) leukemia
# HOP-62 NSCLC = tested on: HOP-62 NSCLC
# HOP-92 NSCLC = tested on: HOP-92 NSCLC
# HS 578T breast = tested on: HS 578T breast
# HT29 colon = tested on: HT29 colon
# IGROV1 ovarian = tested on: IGROV1 ovarian
# K-562 leukemia = tested on: K-562 leukemia
# KM12 colon = tested on: KM12 colon
# LOX IMVI melanoma = tested on: LOX IMVI melanoma
# M14 melanoma = tested on: M14 melanoma
# MALME-3M melanoma = tested on: MALME-3M melanoma
# MCF7 breast = tested on: MCF7 breast
# MDA-MB-231 breast = tested on: MDA-MB-231 breast
# MDA-MB-435 = tested on: MDA-MB-435
# MOLT-4 leukemia = tested on: MOLT-4 leukemia
# NCI-H226 lung = tested on: NCI-H226 lung
# NCI-H23 lung = tested on: NCI-H23 lung
# NCI-H460 lung = tested on: NCI-H460 lung
# NCI-H522 lung = tested on: NCI-H522 lung
# NCI/ADR-RES ovarian = tested on: NCI/ADR-RES ovarian
# OVCAR-3 ovarian = tested on: OVCAR-3 ovarian
# OVCAR-4 ovarian = tested on: OVCAR-4 ovarian
# OVCAR-5 ovarian = tested on: OVCAR-5 ovarian
# OVCAR-8 ovarian = tested on: OVCAR-8 ovarian
# PC-3 prostate = tested on: PC-3 prostate
# RPMI-8226 leukemia = tested on: RPMI-8226 leukemia
# RXF 393 renal = tested on: RXF 393 renal
# SF-268 CNS = tested on: SF-268 CNS
# SF-295 CNS = tested on: SF-295 CNS
# SF-539 CNS = tested on: SF-539 CNS
# SK-MEL-2 melanoma = tested on: SK-MEL-2 melanoma
# SK-MEL-28 melanoma = tested on: SK-MEL-28 melanoma
# SK-MEL-5 melanoma = tested on: SK-MEL-5 melanoma
# SK-OV-3 ovarian = tested on: SK-OV-3 ovarian
# SN12C renal = tested on: SN12C renal
# SNB-19 CNS = tested on: SNB-19 CNS
# SNB-75 CNS = tested on: SNB-75 CNS
# SR leukemia = tested on: SR leukemia
# SW-620 colon = tested on: SW-620 colon
# T-47D breast = tested on: T-47D breast
# TK-10 renal = tested on: TK-10 renal
# U251 CNS = tested on: U251 CNS
# UACC-257 melanoma = tested on: UACC-257 melanoma
# UACC-62 melanoma = tested on: UACC-62 melanoma
compound,measurement,setting,value
CN(C)C1CCN(C(=O)c2ccc(NC(=O)Nc3ccc(-c4nc(N5CCOCC5)nc(N5CCOCC5)n4)cc3)cc2)CC1,GI50,786-0 renal,0.237 µM and 0.136 µM and 0.571 µM
same,TGI,786-0 renal,2.82 µM and 2.5 µM and 8.53 µM
same,GI50,A498 renal,0.0391 µM and 0.03 µM and 0.00566 µM
same,TGI,A498 renal,0.282 µM and 0.154 µM and 0.0788 µM
same,GI50,A549 NSCLC,0.0132 µM and 0.0183 µM and 0.0417 µM
same,TGI,A549 NSCLC,0.232 µM and 0.36 µM and 1.02 µM
same,GI50,ACHN renal,1.42 µM and 1.06 µM
same,TGI,ACHN renal,> 100 µM
same,GI50,BT-549 breast,0.018 µM and 0.0199 µM and 0.0434 µM
same,TGI,BT-549 breast,0.239 µM and 0.206 µM and 0.635 µM
same,GI50,CAKI-1 renal,4.16 µM and 1.49 µM and 0.496 µM
same,GI50,CCRF-CEM leukemia,0.0217 µM and 0.0491 µM and 0.104 µM
same,GI50,COLO 205 colon,0.0136 µM and 0.0334 µM and 0.012 µM
same,TGI,COLO 205 colon,0.155 µM and 0.545 µM and 0.188 µM
same,GI50,DU-145 prostate,0.0157 µM and 0.0156 µM and 0.0258 µM
same,TGI,DU-145 prostate,14.6 µM and 2.5 µM and 7.51 µM
same,GI50,EKVX NSCLC,0.0158 µM and 0.0203 µM and 0.0404 µM
same,GI50,HCC-2998 colon,0.0118 µM and 0.024 µM and 0.0102 µM
same,TGI,HCC-2998 colon,0.839 µM and 2.5 µM and 1.03 µM
same,GI50,HCT-116 colon,0.0289 µM and 0.0441 µM and 0.0359 µM
same,TGI,HCT-116 colon,5.91 µM and 2.5 µM and 2.8 µM
same,GI50,HCT-15 colon,3.08 µM and 2.19 µM
same,TGI,HCT-15 colon,> 100 µM
same,GI50,HL-60(TB) leukemia,0.244 µM and 0.0457 µM and 0.0526 µM
same,TGI,HL-60(TB) leukemia,> 20.4 µM and 2.5 µM and 8.91 µM
same,GI50,HOP-62 NSCLC,0.022 µM and 0.102 µM and 0.0324 µM
same,TGI,HOP-62 NSCLC,0.382 µM and 1.9 µM and 1.1 µM
same,GI50,HOP-92 NSCLC,< 0.01 µM and 0.00627 µM and 0.0138 µM
same,TGI,HOP-92 NSCLC,0.0288 µM and 0.0544 µM and 0.116 µM
same,GI50,HS 578T breast,< 0.01 µM and 0.00879 µM and 0.025 µM
same,TGI,HS 578T breast,0.061 µM and 0.0697 µM and 0.343 µM
same,GI50,HT29 colon,0.0138 µM and 0.0153 µM and 0.0131 µM
same,TGI,HT29 colon,0.266 µM and 2.5 µM and 0.302 µM
same,GI50,IGROV1 ovarian,< 0.01 µM and 0.00788 µM and 0.0103 µM
same,TGI,IGROV1 ovarian,0.0553 µM and 0.0574 µM and 0.141 µM
same,GI50,K-562 leukemia,0.13 µM and 0.0357 µM and 0.132 µM
same,GI50,KM12 colon,0.0355 µM and 0.0423 µM and 0.0437 µM
same,TGI,KM12 colon,7.73 µM and 2.5 µM and 2.36 µM
same,GI50,LOX IMVI melanoma,< 0.01 µM and 0.0111 µM and 0.0296 µM
same,GI50,M14 melanoma,0.23 µM and 0.144 µM and 0.0298 µM
same,TGI,M14 melanoma,5.24 µM and 2.5 µM and 1.17 µM
same,GI50,MALME-3M melanoma,0.0138 µM and 0.0382 µM and 0.00899 µM
same,TGI,MALME-3M melanoma,0.053 µM and 0.24 µM and 0.054 µM
same,GI50,MCF7 breast,0.00665 µM and 0.00604 µM
same,TGI,MCF7 breast,2.5 µM and > 10 µM
same,GI50,MDA-MB-231 breast,< 0.0115 µM and 0.0128 µM and 0.0168 µM
same,TGI,MDA-MB-231 breast,1.71 µM and 2.5 µM and 0.286 µM
same,GI50,MDA-MB-435,0.0148 µM and 0.013 µM and 0.0221 µM
same,TGI,MDA-MB-435,0.133 µM and 0.284 µM and 0.324 µM
same,GI50,MOLT-4 leukemia,0.0311 µM and 0.018 µM and 0.0772 µM
same,TGI,NCI-H226 lung,0.38 µM and 1.95 µM and 0.257 µM
same,GI50,NCI-H23 lung,0.0368 µM and 0.0297 µM and 0.0732 µM
same,TGI,NCI-H23 lung,15.7 µM and 2.5 µM and 2.3 µM
same,GI50,NCI-H460 lung,0.029 µM and 0.0334 µM and 0.0608 µM
same,GI50,NCI-H522 lung,0.0102 µM and 0.0103 µM and 0.0246 µM
same,TGI,NCI-H522 lung,0.0758 µM and 0.207 µM and 0.371 µM
same,GI50,NCI/ADR-RES ovarian,29.4 µM and 4.87 µM
same,TGI,NCI/ADR-RES ovarian,> 100 µM
same,GI50,OVCAR-3 ovarian,0.0148 µM and 0.0139 µM and 0.0282 µM
same,TGI,OVCAR-3 ovarian,0.603 µM and 0.366 µM and 0.935 µM
same,GI50,OVCAR-4 ovarian,< 0.01 µM and 0.00776 µM and 0.0127 µM
same,GI50,OVCAR-5 ovarian,0.0167 µM and 0.0317 µM and 0.0166 µM
same,TGI,OVCAR-5 ovarian,0.325 µM and 2.5 µM and 0.331 µM
same,GI50,OVCAR-8 ovarian,0.0545 µM and 0.0926 µM and 0.437 µM
same,GI50,PC-3 prostate,< 0.01 µM and 0.0108 µM and 0.0309 µM
same,TGI,PC-3 prostate,0.407 µM and 0.216 µM and 1.06 µM
same,GI50,RPMI-8226 leukemia,0.0404 µM and 0.0615 µM and 0.0978 µM
same,GI50,RXF 393 renal,0.023 µM and 0.0271 µM and 0.21 µM
same,GI50,SF-268 CNS,0.0229 µM and 0.0207 µM and 0.0434 µM
same,GI50,SF-295 CNS,0.0732 µM and 0.0711 µM and 0.639 µM
same,TGI,SF-295 CNS,0.577 µM and 0.502 µM and 3.52 µM
same,GI50,SF-539 CNS,< 0.0129 µM and 0.0143 µM and 0.0416 µM
same,GI50,SK-MEL-2 melanoma,0.0236 µM and 0.0243 µM and 0.0196 µM
same,TGI,SK-MEL-2 melanoma,0.0744 µM and 0.113 µM and 0.09 µM
same,GI50,SK-MEL-28 melanoma,0.0231 µM and 0.0392 µM and 0.0159 µM
same,TGI,SK-MEL-28 melanoma,0.245 µM and 0.248 µM and 0.144 µM
same,GI50,SK-MEL-5 melanoma,0.0613 µM and 0.548 µM
same,TGI,SK-MEL-5 melanoma,0.323 µM and 2.18 µM
same,GI50,SK-OV-3 ovarian,< 0.01 µM and 0.00732 µM and 0.0204 µM
same,TGI,SK-OV-3 ovarian,0.0485 µM and 0.0434 µM and 0.188 µM
same,GI50,SN12C renal,< 0.0129 µM and 0.0133 µM and 0.0208 µM
same,TGI,SN12C renal,13.1 µM and 2.5 µM and > 10 µM
same,GI50,SNB-19 CNS,< 0.0123 µM and 0.0131 µM and 0.0174 µM
same,TGI,SNB-19 CNS,4.23 µM and 2.5 µM and 0.875 µM
same,GI50,SNB-75 CNS,< 0.01 µM and 0.00585 µM and 0.00568 µM
same,TGI,SNB-75 CNS,0.0164 µM and 0.0427 µM and 0.0783 µM
same,GI50,SR leukemia,0.0666 µM and 0.0123 µM
same,GI50,SW-620 colon,0.0346 µM and 0.0689 µM and 0.03 µM
same,GI50,T-47D breast,< 0.01 µM and 0.00386 µM and 0.0056 µM
same,TGI,T-47D breast,0.0345 µM and 0.0176 µM and 0.0884 µM
same,GI50,TK-10 renal,0.363 µM and 0.389 µM and 0.122 µM
same,TGI,TK-10 renal,1.84 µM and 1.56 µM and 2.5 µM
same,GI50,U251 CNS,0.0171 µM and 0.0116 µM and 0.0375 µM
same,TGI,U251 CNS,15.1 µM and 2.5 µM and 2.44 µM
same,GI50,UACC-257 melanoma,0.0289 µM and 0.0633 µM and 0.0266 µM
same,TGI,UACC-257 melanoma,0.151 µM and 0.386 µM and 0.243 µM
same,GI50,UACC-62 melanoma,0.0233 µM and 0.0169 µM and 0.0125 µM
same,TGI,UACC-62 melanoma,0.109 µM and 0.121 µM and 0.127 µM
